Experimental data taken from patent US20090298820A1, “3-SUBSTITUTED-1H-PYRROLO[2,3-B]PYRIDINE AND 3-SUBSTITUTED-1H-PYRROLO[3,2-B]PYRIDINE COMPOUNDS, THEIR USE AS MTOR KINASE AND PI3 KINASE INHIBITORS, AND THEIR SYNTHESES” (Wyeth, priority 2008, published 2009).
pIC50: −log10 of the molar value. Where two headings read alike, the source gives them in different places.

How the values were obtained:
PI3Kγ = PI3Kγ (Homo sapiens, UniProt P48736); assay: PI3K-gamma fluorescence polarization assay; format: biochemical; details: read-out: PI3Kγ Median IC50
Chain of PI3Kγ (P48736 whole entry, species assumed): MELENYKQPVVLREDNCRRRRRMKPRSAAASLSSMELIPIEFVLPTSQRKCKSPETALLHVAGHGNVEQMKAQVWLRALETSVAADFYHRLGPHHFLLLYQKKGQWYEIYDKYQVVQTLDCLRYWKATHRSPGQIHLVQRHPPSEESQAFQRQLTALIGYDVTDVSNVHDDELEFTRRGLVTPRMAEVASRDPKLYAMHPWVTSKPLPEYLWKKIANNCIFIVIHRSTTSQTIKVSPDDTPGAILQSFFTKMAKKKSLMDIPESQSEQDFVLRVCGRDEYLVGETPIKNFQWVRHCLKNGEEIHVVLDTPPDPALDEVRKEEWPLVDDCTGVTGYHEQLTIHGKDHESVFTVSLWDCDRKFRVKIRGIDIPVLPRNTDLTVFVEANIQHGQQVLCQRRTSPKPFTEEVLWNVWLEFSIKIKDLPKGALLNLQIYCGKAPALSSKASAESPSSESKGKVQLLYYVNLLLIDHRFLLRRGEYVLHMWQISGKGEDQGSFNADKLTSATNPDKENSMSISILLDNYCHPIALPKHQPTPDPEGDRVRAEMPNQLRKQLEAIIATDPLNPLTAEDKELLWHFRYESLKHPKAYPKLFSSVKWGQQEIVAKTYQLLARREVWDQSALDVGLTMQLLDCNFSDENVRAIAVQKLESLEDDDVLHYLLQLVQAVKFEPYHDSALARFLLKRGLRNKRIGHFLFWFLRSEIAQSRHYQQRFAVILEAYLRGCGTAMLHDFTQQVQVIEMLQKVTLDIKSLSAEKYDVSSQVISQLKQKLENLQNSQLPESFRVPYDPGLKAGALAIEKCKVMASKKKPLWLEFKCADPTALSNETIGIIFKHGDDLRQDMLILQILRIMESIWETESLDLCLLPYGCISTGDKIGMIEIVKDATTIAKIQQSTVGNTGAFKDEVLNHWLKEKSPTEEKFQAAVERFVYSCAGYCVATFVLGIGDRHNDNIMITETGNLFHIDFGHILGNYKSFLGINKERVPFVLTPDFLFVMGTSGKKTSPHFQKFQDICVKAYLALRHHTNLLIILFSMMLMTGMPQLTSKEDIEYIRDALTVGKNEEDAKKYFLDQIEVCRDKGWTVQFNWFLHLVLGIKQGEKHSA

mTOR [1] = molecular target: T1, mTOR (Homo sapiens, UniProt P42345); assay: mTOR enzyme assay (DELFIA format, His6-S6K substrate); format: biochemical; details: read-out: mTOR Kinase Median IC50
PI3Kα = PI3Kα (Homo sapiens, UniProt P42336); assay: PI3K-alpha fluorescence polarization assay; format: biochemical; details: read-out: PI3Kα Median IC50
Chain of PI3Kα (P42336 whole entry, species assumed): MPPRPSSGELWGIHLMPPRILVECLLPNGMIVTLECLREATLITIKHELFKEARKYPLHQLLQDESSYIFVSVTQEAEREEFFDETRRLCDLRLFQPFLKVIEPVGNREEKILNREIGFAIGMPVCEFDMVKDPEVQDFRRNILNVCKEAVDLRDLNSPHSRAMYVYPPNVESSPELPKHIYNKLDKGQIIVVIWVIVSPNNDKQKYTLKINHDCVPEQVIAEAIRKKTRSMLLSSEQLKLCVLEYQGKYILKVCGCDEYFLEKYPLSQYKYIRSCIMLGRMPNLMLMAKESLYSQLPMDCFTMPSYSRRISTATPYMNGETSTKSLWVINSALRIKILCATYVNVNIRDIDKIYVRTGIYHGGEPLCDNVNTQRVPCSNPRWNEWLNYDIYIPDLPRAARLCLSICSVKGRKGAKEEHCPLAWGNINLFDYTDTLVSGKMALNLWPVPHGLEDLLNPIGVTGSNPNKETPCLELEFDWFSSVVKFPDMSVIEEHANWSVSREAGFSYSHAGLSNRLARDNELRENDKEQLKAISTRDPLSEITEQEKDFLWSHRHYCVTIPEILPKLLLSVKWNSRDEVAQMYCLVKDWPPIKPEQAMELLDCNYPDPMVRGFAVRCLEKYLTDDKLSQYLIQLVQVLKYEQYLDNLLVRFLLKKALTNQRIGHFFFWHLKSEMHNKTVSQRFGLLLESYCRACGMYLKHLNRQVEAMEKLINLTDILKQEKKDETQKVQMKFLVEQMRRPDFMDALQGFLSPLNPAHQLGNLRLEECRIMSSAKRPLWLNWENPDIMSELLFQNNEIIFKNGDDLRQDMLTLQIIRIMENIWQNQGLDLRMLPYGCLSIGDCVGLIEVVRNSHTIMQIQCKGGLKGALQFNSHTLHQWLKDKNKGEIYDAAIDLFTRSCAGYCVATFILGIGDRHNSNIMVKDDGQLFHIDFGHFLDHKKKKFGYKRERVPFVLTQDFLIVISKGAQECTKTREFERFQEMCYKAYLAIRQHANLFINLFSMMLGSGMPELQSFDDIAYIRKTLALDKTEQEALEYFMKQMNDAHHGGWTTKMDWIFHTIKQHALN
Chain of PI3Kα (P27986 whole entry partner, species assumed): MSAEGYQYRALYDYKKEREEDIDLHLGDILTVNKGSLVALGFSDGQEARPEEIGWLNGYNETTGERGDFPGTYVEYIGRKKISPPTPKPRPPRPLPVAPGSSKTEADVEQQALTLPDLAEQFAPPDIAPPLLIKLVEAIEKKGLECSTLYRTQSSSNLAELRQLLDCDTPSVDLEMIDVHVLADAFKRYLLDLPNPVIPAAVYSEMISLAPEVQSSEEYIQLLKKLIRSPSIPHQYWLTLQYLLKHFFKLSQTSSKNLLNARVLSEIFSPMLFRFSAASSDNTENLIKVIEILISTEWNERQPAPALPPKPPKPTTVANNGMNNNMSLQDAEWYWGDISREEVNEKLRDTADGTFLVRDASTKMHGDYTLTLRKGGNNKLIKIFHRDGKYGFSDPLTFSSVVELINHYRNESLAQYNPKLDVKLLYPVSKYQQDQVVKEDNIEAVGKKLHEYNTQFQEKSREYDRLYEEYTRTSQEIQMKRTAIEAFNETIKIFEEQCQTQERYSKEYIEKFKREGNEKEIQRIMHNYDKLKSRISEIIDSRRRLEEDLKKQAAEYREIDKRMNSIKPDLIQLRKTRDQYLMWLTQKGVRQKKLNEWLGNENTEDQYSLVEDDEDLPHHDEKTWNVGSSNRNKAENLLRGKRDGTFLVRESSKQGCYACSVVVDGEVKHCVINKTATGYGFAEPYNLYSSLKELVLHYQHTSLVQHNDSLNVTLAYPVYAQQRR

[2] = test system: human tumor xenograft models; details: cited from earlier work
[3] = test system: acute lymphoblastic leukemia; details: NOS/SCID xenograft; cited from earlier work
mTOR [4] = molecular target: T1, mTOR; details: read-out: mTOR complexes / mTOR enzymes IC50; literature value; cited from earlier work

**Q.** Which results are given for `COCCN1CCN(C(=O)c2ccc(-c3ccnc4c3c(/C=C3\Oc5cccc(O)c5C3=O)cn4C)cc2)CC1` [Compound 304, (2Z)-4-hydroxy-2-{[4-(4-{[4-(2-methoxyethyl)piperazin-1-yl]carbonyl}phenyl)-1-methyl-1H-pyrrolo[2,3-b]pyridin-3-yl]methylidene}-1-benzofuran-3(2H)-one]?
**A.** melting point: 118 to 122 °C; pIC50 (PI3Kγ): 6.51; pIC50 (mTOR [1]): 8.82; pIC50 (PI3Kα): 6.96

**Q.** Which results are given for `COCCC1CN(C(=O)c2ccc(-c3ccnc4c3c(/C=C3\Oc5cccc(O)c5C3=O)cn4C)cc2)CCO1` (centres unmarked) [Compound 305, (2Z)-4-hydroxy-2-{[4-(4-{[2-(2-methoxyethyl)morpholin-4-yl]carbonyl}phenyl)-1-methyl-1H-pyrrolo[2,3-b]pyridin-3-yl]methylidene}-1-benzofuran-3(2H)-one]?
**A.** melting point: 154 to 160 °C; pIC50 (PI3Kγ): 7.42; pIC50 (mTOR [1]): 9.00; pIC50 (PI3Kα): 7.19

**Q.** For `Cn1cc(/C=C2\Oc3cccc(O)c3C2=O)c2c(N3CCC(C(=O)N4CC5CCC(C4)O5)CC3)ccnc21` [Compound 306, (2Z)-4-hydroxy-2-({1-methyl-4-[4-(8-oxa-3-azabicyclo[3.2.1]oct-3-ylcarbonyl)piperidin-1-yl]-1H-pyrrolo[2,3-b]pyridin-3-yl}methylidene)-1-benzofuran-3(2H)-one], which melting point is on record?
**A.** The melting point was 264 to 268 °C.

**Q.** And the pIC50 (PI3Kγ)?
**A.** The pIC50 was 6.88.

**Q.** What about the pIC50 (mTOR [1]) of the same compound?
**A.** Its pIC50 is 8.70.

**Q.** And the pIC50 (PI3Kα)?
**A.** The pIC50 was 7.29.

**Q.** For `Cn1cc(/C=C2\Oc3cccc(O)c3C2=O)c2c(N3CCC(C(=O)N4CCN(CCO)CC4)CC3)ccnc21` [Compound 307, (2Z)-4-hydroxy-2-{[4-(4-{[4-(2-hydroxyethyl)piperazin-1-yl]carbonyl}piperidin-1-yl)-1-methyl-1H-pyrrolo[2,3-b]pyridin-3-yl]methylidene}-1-benzofuran-3(2H)-one], which melting point is on record?
**A.** Its melting point is 136 to 140 °C.

**Q.** What about the pIC50 (PI3Kγ) of the same compound?
**A.** The pIC50 was 6.80.

**Q.** What about the pIC50 (mTOR [1]) of the same compound?
**A.** The pIC50 was 8.72.

**Q.** What about the pIC50 (PI3Kα) of the same compound?
**A.** The pIC50 was 7.62.

**Q.** With `COCC1CN(C(=O)C2CCN(c3ccnc4c3c(/C=C3\Oc5ccc(NC(=O)Nc6cccnc6)cc5C3=O)cn4C)CC2)CCO1` (centres unmarked) [Compound 308, 1-[(2Z)-2-{[4-(4-{[2-(methoxymethyl)morpholin-4-yl]carbonyl}piperidin-1-yl)-1-methyl-1H-pyrrolo[2,3-b]pyridin-3-yl]methylidene}-3-oxo-2,3-dihydro-1-benzofuran-5-yl]-3-pyridin-3-ylurea] as the compound, how does the melting point read?
**A.** The melting point was 206 to 210 °C.

**Q.** What about the pIC50 (PI3Kγ) of the same compound?
**A.** The pIC50 was 5.55.

**Q.** What about the pIC50 (mTOR [1]) of the same compound?
**A.** Its pIC50 is 7.43.

**Q.** What about the pIC50 (PI3Kα) of the same compound?
**A.** The pIC50 was 6.14.

**Q.** For `Cn1cc(/C=C2\Oc3ccc(NC(=O)Nc4cccnc4)cc3C2=O)c2c(N3CCC(C(=O)N4C5CCCC4COC5)CC3)ccnc21` [Compound 309, 1-[(2Z)-2-({1-methyl-4-[4-(3-oxa-9-azabicyclo[3.3.1]non-9-ylcarbonyl)piperidin-1-yl]-1H-pyrrolo[2,3-b]pyridin-3-yl}methylidene)-3-oxo-2,3-dihydro-1-benzofuran-5-yl]-3-pyridin-3-ylurea], which melting point is on record?
**A.** Its melting point is 210 to 215 °C.

**Q.** And the pIC50 (PI3Kγ)?
**A.** Its pIC50 is 5.86.

**Q.** What about the pIC50 (mTOR [1]) of the same compound?
**A.** Its pIC50 is 7.32.

**Q.** And the pIC50 (PI3Kα)?
**A.** The pIC50 was 6.79.

**Q.** For `COCC1CN(C(=O)c2ccc(-c3ccnc4c3c(/C=C3\Oc5cccc(O)c5C3=O)cn4C)cc2)CCO1` (centres unmarked) [Compound 310, (2Z)-4-hydroxy-2-{[4-(4-{[2-(methoxymethyl)morpholin-4-yl]carbonyl}phenyl)-1-methyl-1H-pyrrolo[2,3-b]pyridin-3-yl]methylidene}-1-benzofuran-3(2H)-one], which melting point is on record?
**A.** Its melting point is 222 to 226 °C.

**Q.** And the pIC50 (PI3Kγ)?
**A.** The pIC50 was 6.67.

**Q.** What about the pIC50 (mTOR [1]) of the same compound?
**A.** Its pIC50 is 8.85.

**Q.** And the pIC50 (PI3Kα)?
**A.** The pIC50 was 7.14.

**Q.** With `COCC1CN(C(=O)C2CCN(c3ccnc4c3c(/C=C3\Oc5cccc(O)c5C3=O)cn4C)CC2)CCO1` (centres unmarked) [Compound 311, (2Z)-4-hydroxy-2-{[4-(4-{[2-(methoxymethyl)morpholin-4-yl]carbonyl}piperidin-1-yl)-1-methyl-1H-pyrrolo[2,3-b]pyridin-3-yl]methylidene}-1-benzofuran-3(2H)-one] as the compound, how does the melting point read?
**A.** Its melting point is 112 to 115 °C.

**Q.** And the pIC50 (PI3Kγ)?
**A.** Its pIC50 is 6.16.

**Q.** What about the pIC50 (mTOR [1]) of the same compound?
**A.** The pIC50 was 8.42.

**Q.** What about the pIC50 (PI3Kα) of the same compound?
**A.** Its pIC50 is 6.84.

**Q.** With `Cn1cc(/C=C2\Oc3cccc(O)c3C2=O)c2c(N3CCC(C(=O)N4C5CCCC4COC5)CC3)ccnc21` [Compound 312, (2Z)-4-hydroxy-2-({1-methyl-4-[4-(3-oxa-9-azabicyclo[3.3.1]non-9-ylcarbonyl)piperidin-1-yl]-1H-pyrrolo[2,3-b]pyridin-3-yl}methylidene)-1-benzofuran-3(2H)-one] as the compound, how does the melting point read?
**A.** The melting point was 210 to 218 °C.

**Q.** And the pIC50 (PI3Kγ)?
**A.** Its pIC50 is 6.34.

**Q.** What about the pIC50 (mTOR [1]) of the same compound?
**A.** The pIC50 was 8.49.

**Q.** And the pIC50 (PI3Kα)?
**A.** The pIC50 was 7.17.

**Q.** For `Cn1c(=O)n(-c2ccc(C(C)(C)C#N)cc2)c2c3cc(-c4cnc5ccccc5c4)ccc3ncc21` [NVP-BEZ-235, 2-methyl-2-(4-(3-methyl-2-oxo-8-(quinolin-3-yl)-2,3-dihydro-1H-imidazo[4,5-c]quinolin-1-yl)phenyl)propanenitrile], which “activity against human tumor models” value ([2]; prostrate (PC-3) and glioblastoma (U-87)) is on record?
**A.** Its value is “demonstrated activity”.

**Q.** With `Oc1cccc(-c2nc(N3CCOCC3)c3oc4ncccc4c3n2)c1` [PI103, 3-(4-(4-morpholinyl)pyrido[3′,2′:4,5]furo[3,2-d]pyrimidin-2-yl)phenol] as the compound, how does the “activity against human tumor models” value ([2]; I.P. dosing in mice, U87MG, PC3, MDA-MB-468, MDA-MB-435, HCT 116, SKOV3, IGROV-1) read?
**A.** Its value is “demonstrated activity”.

**Q.** With `CO[C@H]1C[C@@H]2CC[C@@H](C)[C@@](O)(O2)C(=O)C(=O)N2CCCC[C@H]2C(=O)O[C@H]([C@H](C)C[C@@H]2CC[C@@H](OC(=O)C(C)(CO)CO)[C@H](OC)C2)CC(=O)[C@H](C)/C=C(\C)[C@@H](O)[C@@H](OC)C(=O)[C@H](C)C[C@H](C)/C=C/C=C/C=C/1C` [Torisel] as the compound, how does the “activity in xenograft mouse model” value [3] read?
**A.** The value was “active”.

**Q.** For `FC(F)c1nc2ccccc2n1-c1nc(N2CCOCC2)nc(N2CCOCC2)n1` [ZSTK474, 2-(2-difluoromethylbenzoimidazol-1-yl)-4,6-dimorpholino-1,3,5-triazine], which tumor growth inhibition ([2]; chronic oral administration, 400 mg/kg, A549, PC-3, WiDr) is on record?
**A.** Its tumor growth inhibition is “completely inhibited growth”.

**Q.** And the pIC50 (mTOR [4])?
**A.** Its pIC50 is < 5.00.
